We go through six molecules from US20220117913A1, “DEZOCINE DERIVATIVE AND MEDICAL USE THEREOF” (YANGTZE RIVER PHARMACEUTICAL GROUP CO., LTD., priority 2019, published 2022).

Data set [1] can be described thus: pharmacokinetic investigation of intravenous administration in mice. The conditions noted are these: mouse; male mice, intravenous injection, plasma. The format is in vivo. The method, then:
Male mice were injected intravenously with the compound of the present disclosure, and the concentration of the unchanged compound in plasma and the concentration of the metabolite of dezocine hydrochloride were measured after the administration.

The next data set has as its target μ opioid receptor (Homo sapiens, UniProt P35372). The data set can be described thus: radioisotope ligand competitive binding assay, μ opioid receptor (MOR). The conditions noted are these: [3H]DAMGO 0.5 nM, cell membrane of stably transfected cells; read-out: μ IC50.
The target of a further data set is κ opioid receptor (Homo sapiens, UniProt P41145). Briefly: radioisotope ligand competitive binding assay, κ opioid receptor (KOR). As to conditions: [3H]Diprenorphine 0.3 nM, cell membrane of stably transfected cells; read-out: κ IC50. An excerpt:
(§1) Through the radioisotope ligand competitive binding assay, IC50 of the compound was used as an indicator to evaluate the affinity of the compound to κ and δ opioid receptors.
(§2) (1) Reagents • The cell membrane was extracted from stably transfected cells constructed by WuXi AppTec, Shanghai. • 3H-diprenophrine (PerkinElmer, Cat: NET1121250UC, Lot: 2143599) • 3H-DAMGO (PerkinElmer, Cat: NET902250UC, Lot: 2139100) • 3H-DADLE (PerkinElmer, Cat: NET648250UC, Lot: 2060549) • Tris base (Sigma, Cat: T6066-1KG), prepare 1M stock and adjust pH to 7.4. • 0.5M EDTA (Invitrogen, Cat: 15575-038) • 1M MgCl2 (Sigma, Cat: M1028-100 ml) • PEI (Poly ethyleneimine) (Sigma, Cat: P3143) • Microscint 20 cocktail (PerkinElmer, Cat: 6013329) • Naltrindole (Sigma, Cat; N115) • (±)trans-U-50488 (Sigma, Cat: D8040) • DAMGO (Sigma, Cat: E7384)
(§3) (1) 1 μL of the test compounds, negative control (i.e., DMSO) and positive control (i.e., non-specific binding well compound), after being prepared, were respectively transferred to a 96-well plate;
(§4) (2) 99 μL of the prepared opioid receptor membrane protein was added to each well of the 96-well plate containing 1 μL of the compound;
(§5) (3) 100 μL of 2× corresponding radioisotope ligand was added to each well;
(§6) (4) The plate was placed on a shake and incubated at room temperature for 1 hour;
(§7) (5) Each well of the GF/C plate was soaked with 50 μL of 0.3% PEI for at least half an hour in advance;
(§8) (6) After the incubation was finished, the GF/C plate was washed with plate washing buffer once by using Harvest. Then, the cell membranes in the 96-well plate were collected onto the GF/C plate using Harvest, and the GF/C plate was washed four times with the plate washing buffer, each time about 250 μL;
(§9) (7) The GF/C plate was placed in an oven at 50° C. for 1 hour;
(§10) (8) The bottom of the GF/C plate was sealed with a plate sealing film, 50 μL of Microscint-20 scintillation fluid was added to each well, and then the plate was sealed with a transparent sealing film for microplate;
(§11) (9) The radioactive signal value CPM was read using MicroBeta2;
(§12) (10) The data was analyzed with Prism 5. The percentage inhibition rate was calculated with the calculation formula: % Inh=(1-Background subtracted Assay value/Background subtracted HC value)*100.

The next data set concerns the target δ opioid receptor (Homo sapiens, UniProt P41143). Briefly: radioisotope ligand competitive binding assay, δ opioid receptor (DOR). The conditions noted are these: [3H]-DADLE 0.5 nM, cell membrane of stably transfected cells; read-out: δ IC50.
Source text: as §1, §2, §3, §4, §5, §6, §7, §8, §9, §10, §11, §12

In data set [2] the test system is pain induced by heat radiation in mice. The data set can be described thus: pain induced by heat radiation in mice (light and heat-induced pain). It counts as in vivo. As to conditions: for ED50: Mus musculus; for analgesic effect (comparison in words): four mouse models of pain (heat radiation and hot plate), versus dezocine. An excerpt: (§13) A mode of pain induced by heat radiation in mice and a mode of pain induced by hot plate in mice were used to evaluate the analgesic intensity of the test compounds.

In data set [3] the test system is pain induced by hot plate in mice. Briefly: pain induced by hot plate in mice. The format is in vivo. The conditions noted are these: Mus musculus; male mice.
Source text: as §13

[4] abbreviates: female mice, read-out: Light and heat-induced pain ED50 Female.
The mark [5] stands for this setting: male mice, read-out: Light and heat-induced pain ED50 Male.

Structures are written as SMILES. Counter-ions that a name gives are not always drawn. Like-named read-outs stand apart in the source and are kept apart here. Where only a bound is given, the exact number is not on record here.

Turning to `C[C@@]12CCCCC[C@@H](Cc3ccc(O)cc31)[C@@H]2N` (relative stereo) [dezocine hydrochloride, (−)-[5R-(5a,11a,13S*)]-13-amino-5,6,7,8,9,10,11,12-octahydro-5-methyl-5,11-methylene benzocyclodecen-3-ol, reference compound], in data set [1], the half-life is 0.903 h.
On to `CCCCN[C@H]1[C@H]2CCCCC[C@]1(C)c1cc(O)ccc1C2` [Hydrochloride of compound 21], for which the values for the IC50 at μ opioid receptor, on κ opioid receptor and at δ opioid receptor were below 10 nM, 10 to 100 nM and 10 to 100 nM, respectively. In addition, the 50% effective dose (ED50) in data set [2] (setting [4]) was found to be 0.068 mg/kg; in data set [2] (setting [5]), 0.12 mg/kg; in data set [3], 0.15 mg/kg. Also, the “Light and heat-induced pain ED95 Female” value in data set [2] (female mice) was found to be 0.083 mg/kg. For the same molecule, in data set [2] (male mice), the “Light and heat-induced pain ED95 Male” value is 0.18 mg/kg. This molecule also had a half-life in data set [1] of 1.27 h.
On to `CCCCCN[C@H]1[C@H]2CCCCC[C@]1(C)c1cc(O)ccc1C2` [Hydrochloride of compound 22], for which the IC50 at μ opioid receptor was below 10 nM; on κ opioid receptor, 10 to 100 nM; on δ opioid receptor, 10 to 100 nM. Besides, the values for the ED50 in data set [2] (setting [4]), in data set [2] (setting [5]) and in data set [3] were 0.18 mg/kg, 0.13 mg/kg and 0.3 mg/kg, respectively. The “Light and heat-induced pain ED95 Female” value in data set [2] (female mice) is recorded as 0.26 mg/kg. Moreover, the “analgesic effect (comparison in words)” value in data set [2] is reported as “stronger than dezocine”. The “Light and heat-induced pain ED95 Male” value in data set [2] (male mice) worked out at 0.26 mg/kg. For the same molecule, the half-life in data set [1] was 1.24 h.
In the case of `C[C@@]12CCCCC[C@@H](Cc3ccc(O)cc31)[C@@H]2NCCc1ccccc1` [Hydrochloride of compound 25], the IC50 on μ opioid receptor is below 10 nM; at κ opioid receptor, 100 to 1000 nM; at δ opioid receptor, 100 to 1000 nM. Besides, the 50% effective dose (ED50) in data set [2] (setting [4]) turned out to be 1.15 mg/kg; in data set [2] (setting [5]), 0.74 mg/kg. Besides, the “Light and heat-induced pain ED95 Female” value in data set [2] (female mice) was 2.88 mg/kg. Besides, the “Light and heat-induced pain ED95 Male” value in data set [2] (male mice) turned out to be 1.18 mg/kg. For the same molecule, in data set [1], the half-life was 1.65 h.
`C[C@@]12CCCCC[C@@H](Cc3ccc(O)cc31)[C@@H]2NCc1ccccc1` [Hydrochloride of compound 26]: the IC50 on μ opioid receptor, at κ opioid receptor and at δ opioid receptor was below 10 nM in each case. Moreover, the ED50 in data set [2] (setting [4]) amounted to 0.025 mg/kg; in data set [2] (setting [5]) it was 0.017 mg/kg; in data set [3] it was 0.045 mg/kg. In addition, in data set [2] (female mice), the “Light and heat-induced pain ED95 Female” value worked out at 0.043 mg/kg. In addition, the “analgesic effect (comparison in words)” value in data set [2] was “strongest analgesic effect”. For the same molecule, in data set [2] (male mice), the “Light and heat-induced pain ED95 Male” value is reported as 0.021 mg/kg. Also, the half-life in data set [1] is 1.35 h.
`CN(Cc1ccccc1)[C@H]1[C@H]2CCCCC[C@]1(C)c1cc(OCc3ccccc3)ccc1C2` [Hydrochloride of compound 40]: the IC50 is below 10 nM at μ opioid receptor, below 10 nM on κ opioid receptor and 10 to 100 nM at δ opioid receptor.
